Data from ChEMBL document CHEMBL4811250, “Discovery and Optimization of 2H-1λ2-Pyridin-2-one Inhibitors of Mutant Isocitrate Dehydrogenase 1 for the Treatment of Cancer” (J Med Chem, 2021).

tested on: Isocitrate dehydrogenase [NADP] cytoplasmic (Homo sapiens), O75874 [R132H]; assay: Inhibition of IDH1 R132H mutant (unknown origin) assessed as reduction in NADPH consumption using alpha-KG as substrate at 38 uM incubated for 5 mins by diaphorase/resazurin-coupled system relative to control
Sequence (O75874 whole entry R132H): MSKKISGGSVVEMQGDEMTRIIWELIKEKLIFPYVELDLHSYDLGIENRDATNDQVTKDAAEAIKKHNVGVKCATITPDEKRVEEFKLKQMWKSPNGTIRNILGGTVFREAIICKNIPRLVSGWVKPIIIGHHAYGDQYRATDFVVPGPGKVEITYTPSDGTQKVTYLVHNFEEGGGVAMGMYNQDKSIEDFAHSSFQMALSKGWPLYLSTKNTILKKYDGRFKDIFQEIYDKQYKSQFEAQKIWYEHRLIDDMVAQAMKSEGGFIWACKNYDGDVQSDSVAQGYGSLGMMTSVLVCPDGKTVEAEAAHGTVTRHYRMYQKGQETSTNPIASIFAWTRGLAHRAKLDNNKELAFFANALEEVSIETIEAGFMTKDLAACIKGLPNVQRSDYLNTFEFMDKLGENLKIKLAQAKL

Row | Structure (SMILES) | inhibition [%]
1 | COC(=O)c1ccsc1-n1c2c(cc(-c3nc(-c4ccc(Cl)cc4)cs3)c1=O)C(=O)CC(C)(C)C2 | 94
2 | CCc1cccc(CC)c1-n1c(CC2CCOCC2)c(C(=O)N2CCNCC2)cc(-c2nc(-c3ccc(Cl)cc3)cs2)c1=O | 93
3 | CCc1cccc(CC)c1-n1c(CC2CCOC2)c(C(=O)N2CCNCC2)cc(-c2nc(-c3ccc(Cl)cc3)cs2)c1=O (configuration not stated) | 105
4 | CCc1cccc(CC)c1-n1c(C)c(C(=O)NCC(N)=O)cc(-c2nc(-c3ccc(Cl)cc3)cs2)c1=O | 105
5 | CCc1cccc(CC)c1-n1c(C)c(C(=O)NCCO)cc(-c2nc(-c3ccc(Cl)cc3)cs2)c1=O | 104

Now from value to compound:

Row | inhibition [%] | Structure (SMILES)
6 | 85 | CCOc1ccc(OCC)c(-n2c3c(cc(-c4nc(-c5ccc(Cl)cc5)cs4)c2=O)C(=O)CC(C)(C)C3)c1
7 | 108 | COc1ccc(C(=O)O)cc1-n1c2c(cc(-c3nc(-c4ccc(Cl)cc4)cs3)c1=O)C(=O)CC(C)(C)C2
8 | 41 | COc1ccc(OC)c(-n2c3c(cc(-c4cn(-c5ccc(Cl)cc5)cn4)c2=O)C(=O)CC(C)(C)C3)c1
9 | 80 | CC(C)Oc1ccccc1-n1c2c(cc(-c3nc(-c4ccc(Cl)cc4)cs3)c1=O)C(=O)CC(C)(C)C2
10 | 82 | COc1ccc(OC)c(-n2c3c(cc(-c4nc(-c5ccc(Cl)cc5)c[nH]4)c2=O)C(=O)CC(C)(C)C3)c1
11 | 76 | CCOc1cccc(OCC)c1-n1c2c(cc(-c3nc(-c4ccc(Cl)cc4)cs3)c1=O)C(=O)CC(C)(C)C2

tested on: Isocitrate dehydrogenase [NADP] cytoplasmic (Homo sapiens), O75874 [R132C]; assay: Inhibition of IDH1 R132C mutant (unknown origin) assessed as reduction in NADPH consumption using alpha-KG as substrate at 38 uM incubated for 5 mins by diaphorase/resazurin-coupled system relative to control
Sequence (O75874 whole entry R132C): as the sequence (O75874 whole entry R132H) above, with H132C counted along it

Row | Structure (SMILES) | inhibition [%]
12 | COC(=O)c1ccsc1-n1c2c(cc(-c3nc(-c4ccc(Cl)cc4)cs3)c1=O)C(=O)CC(C)(C)C2 | 83
13 | CCc1cccc(CC)c1-n1c(CC2CCOCC2)c(C(=O)N2CCNCC2)cc(-c2nc(-c3ccc(Cl)cc3)cs2)c1=O | 79
14 | CCc1cccc(CC)c1-n1c(CC2CCOC2)c(C(=O)N2CCNCC2)cc(-c2nc(-c3ccc(Cl)cc3)cs2)c1=O (configuration not stated) | 91
15 | CCc1cccc(CC)c1-n1c(C)c(C(=O)NCC(N)=O)cc(-c2nc(-c3ccc(Cl)cc3)cs2)c1=O | 77
16 | CCc1cccc(CC)c1-n1c(C)c(C(=O)NCCO)cc(-c2nc(-c3ccc(Cl)cc3)cs2)c1=O | 96

The next lines start with the values.

Row | inhibition [%] | Structure (SMILES)
17 | 75 | CCOc1ccc(OCC)c(-n2c3c(cc(-c4nc(-c5ccc(Cl)cc5)cs4)c2=O)C(=O)CC(C)(C)C3)c1
18 | 86 | COc1ccc(C(=O)O)cc1-n1c2c(cc(-c3nc(-c4ccc(Cl)cc4)cs3)c1=O)C(=O)CC(C)(C)C2
19 | 77 | CC(C)Oc1ccccc1-n1c2c(cc(-c3nc(-c4ccc(Cl)cc4)cs3)c1=O)C(=O)CC(C)(C)C2
20 | 77 | COc1ccc(OC)c(-n2c3c(cc(-c4nc(-c5ccc(Cl)cc5)c[nH]4)c2=O)C(=O)CC(C)(C)C3)c1
21 | 86 | CCOc1cccc(OCC)c1-n1c2c(cc(-c3nc(-c4ccc(Cl)cc4)cs3)c1=O)C(=O)CC(C)(C)C2

target: Isocitrate dehydrogenase [NADP] cytoplasmic (Homo sapiens, UniProt O75874, R132C); assay: Inhibition of IDH1 R132C mutant (unknown origin) assessed as reduction in NADPH consumption using alpha-KG as substrate incubated for 5 mins by diaphorase/resazurin-coupled system
Sequence (O75874 2-414 R132C limits assumed): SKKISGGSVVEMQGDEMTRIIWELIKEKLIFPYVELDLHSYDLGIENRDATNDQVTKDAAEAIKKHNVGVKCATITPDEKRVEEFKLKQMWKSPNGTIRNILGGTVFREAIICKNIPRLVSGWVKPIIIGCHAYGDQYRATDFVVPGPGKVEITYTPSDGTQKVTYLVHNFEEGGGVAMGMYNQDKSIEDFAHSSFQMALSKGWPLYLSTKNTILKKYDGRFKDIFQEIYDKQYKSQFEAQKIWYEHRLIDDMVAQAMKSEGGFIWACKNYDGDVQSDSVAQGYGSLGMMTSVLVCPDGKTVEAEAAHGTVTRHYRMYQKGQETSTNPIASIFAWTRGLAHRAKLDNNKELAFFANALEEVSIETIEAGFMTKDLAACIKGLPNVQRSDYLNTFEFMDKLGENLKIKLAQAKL

Row | Structure (SMILES) | IC50 [nM]
22 | COC(=O)c1ccsc1-n1c2c(cc(-c3nc(-c4ccc(Cl)cc4)cs3)c1=O)C(=O)CC(C)(C)C2 | 470
23 | CCc1cccc(CC)c1-n1c(CC2CCOCC2)c(C(=O)N2CCNCC2)cc(-c2nc(-c3ccc(Cl)cc3)cs2)c1=O | 980
24 | CCc1cccc(CC)c1-n1c(CC2CCOC2)c(C(=O)N2CCNCC2)cc(-c2nc(-c3ccc(Cl)cc3)cs2)c1=O (configuration not stated) | 130
25 | CCc1cccc(CC)c1-n1c(C)c(C(=O)NCC(N)=O)cc(-c2nc(-c3ccc(Cl)cc3)cs2)c1=O | 3800
26 | CCc1cccc(CC)c1-n1c(C)c(C(=O)NCCO)cc(-c2nc(-c3ccc(Cl)cc3)cs2)c1=O | 2000

Further lines, results first:

Row | IC50 [nM] | Structure (SMILES)
27 | 64 | CCOc1ccc(OCC)c(-n2c3c(cc(-c4nc(-c5ccc(Cl)cc5)cs4)c2=O)C(=O)CC(C)(C)C3)c1
28 | 14000 | COc1ccc(C(=O)O)cc1-n1c2c(cc(-c3nc(-c4ccc(Cl)cc4)cs3)c1=O)C(=O)CC(C)(C)C2
29 | > 38000 | COc1ccc(OC)c(-n2c3c(cc(-c4cn(-c5ccc(Cl)cc5)cn4)c2=O)C(=O)CC(C)(C)C3)c1
30 | 470 | CC(C)Oc1ccccc1-n1c2c(cc(-c3nc(-c4ccc(Cl)cc4)cs3)c1=O)C(=O)CC(C)(C)C2
31 | 2500 | COc1ccc(OC)c(-n2c3c(cc(-c4nc(-c5ccc(Cl)cc5)c[nH]4)c2=O)C(=O)CC(C)(C)C3)c1
32 | 160 | CCOc1cccc(OCC)c1-n1c2c(cc(-c3nc(-c4ccc(Cl)cc4)cs3)c1=O)C(=O)CC(C)(C)C2

target: Isocitrate dehydrogenase [NADP] cytoplasmic (Homo sapiens, UniProt O75874, R132H); assay: Inhibition of IDH1 R132H mutant (unknown origin) assessed as reduction in NADPH consumption using alpha-KG as substrate incubated for 5 mins by diaphorase/resazurin-coupled system
Sequence (O75874 2-414 R132H limits assumed): as the sequence (O75874 2-414 R132C limits assumed) above, with C131H counted along it

Row | Structure (SMILES) | IC50 [nM]
33 | COC(=O)c1ccsc1-n1c2c(cc(-c3nc(-c4ccc(Cl)cc4)cs3)c1=O)C(=O)CC(C)(C)C2 | 470
34 | CCc1cccc(CC)c1-n1c(CC2CCOCC2)c(C(=O)N2CCNCC2)cc(-c2nc(-c3ccc(Cl)cc3)cs2)c1=O | 1100
35 | CCc1cccc(CC)c1-n1c(CC2CCOC2)c(C(=O)N2CCNCC2)cc(-c2nc(-c3ccc(Cl)cc3)cs2)c1=O (configuration not stated) | 75
36 | CCc1cccc(CC)c1-n1c(C)c(C(=O)NCC(N)=O)cc(-c2nc(-c3ccc(Cl)cc3)cs2)c1=O | 1600
37 | CCc1cccc(CC)c1-n1c(C)c(C(=O)NCCO)cc(-c2nc(-c3ccc(Cl)cc3)cs2)c1=O | 420

The remaining lines, values ahead:

Row | IC50 [nM] | Structure (SMILES)
38 | 160 | CCOc1ccc(OCC)c(-n2c3c(cc(-c4nc(-c5ccc(Cl)cc5)cs4)c2=O)C(=O)CC(C)(C)C3)c1
39 | 12000 | COc1ccc(C(=O)O)cc1-n1c2c(cc(-c3nc(-c4ccc(Cl)cc4)cs3)c1=O)C(=O)CC(C)(C)C2
40 | 1100 | CC(C)Oc1ccccc1-n1c2c(cc(-c3nc(-c4ccc(Cl)cc4)cs3)c1=O)C(=O)CC(C)(C)C2
41 | 2200 | COc1ccc(OC)c(-n2c3c(cc(-c4nc(-c5ccc(Cl)cc5)c[nH]4)c2=O)C(=O)CC(C)(C)C3)c1
42 | 390 | CCOc1cccc(OCC)c1-n1c2c(cc(-c3nc(-c4ccc(Cl)cc4)cs3)c1=O)C(=O)CC(C)(C)C2
